Experimental data reported in patent US20260042731A1, “(2,4-DICHLOROPHENOXY)ACETIC ACID ANALOGS” (CORTEVA AGRISCIENCE LLC, priority 2022, published 2026).
Where two headings read alike, the source gives them in different places.

What was measured:
[1] = tested on: Amaranthus rudis (AMATA), tall water hemp; assay: Postemergence herbicide evaluation, growth of Amaranthus rudis (AMATA); type: in vivo; details: Amaranthus tuberculatus, post-emergence, read-out: Ave. AMATA
[2] = tested on: Ambrosia artemisiifolia (AMBEL), common ragweed; assay: Postemergence herbicide evaluation, growth of Ambrosia artemisiifolia (AMBEL); type: in vivo; details: Ambrosia artemisiifolia, post-emergence, read-out: AVE. AMBEL
[3] = tested on: Abutilon theophrasti (ABUTH), velvetleaf; assay: Postemergence herbicide evaluation, growth of Abutilon theophrasti (ABUTH); type: in vivo; details: Abutilon theophrasti, post-emergence, read-out: AVE. ABUTH
[4] = tested on: Chenopodium album (CHEAL), common lambsquarters; assay: Postemergence herbicide evaluation, growth of Chenopodium album (CHEAL); type: in vivo; details: Chenopodium album, post-emergence, read-out: Ave. CHEAL
[5] = tested on: glyphosate resistant Conyza canadensis (L.) (ERICA), horseweed; assay: Postemergence herbicide evaluation, growth of Conyza canadensis (ERICA); type: in vivo; details: Erigeron canadensis, post-emergence, read-out: Ave. ERICA
[6] = Volatility of compounds measured by thermogravimetric analysis (TGA); type: physicochemical
[7] = tested on: weeds (ABUTH, AMATA, AMBEL, CHEAL, ERICA); assay: Postemergence herbicide evaluation, overall average % weed control across ABUTH, AMATA, AMBEL, CHEAL, ERICA; type: in vivo; details: post-emergence, read-out: Overall Ave % Weed Control
[8] = 168 h, 280 g ae/ha, 7 DAA, percent reduction in plant size relative to untreated control
[9] = 168 h, 560 g ae/ha, 7 DAA, percent reduction in plant size relative to untreated control
[10] = 336 h, 280 g ae/ha, 14 DAA, percent reduction in plant size relative to untreated control
[11] = 336 h, 560 g ae/ha, 14 DAA, percent reduction in plant size relative to untreated control
[12] = 504 h, 280 g ae/ha, 21 DAA, percent reduction in plant size relative to untreated control
[13] = 504 h, 560 g ae/ha, 21 DAA, percent reduction in plant size relative to untreated control
[14] = 168 h, 280 g ae/ha, 7 DAA, average over the five weeds
[15] = 168 h, 560 g ae/ha, 7 DAA, average over the five weeds
[16] = 336 h, 280 g ae/ha, 14 DAA, average over the five weeds
[17] = 336 h, 560 g ae/ha, 14 DAA, average over the five weeds
[18] = 504 h, 280 g ae/ha, 21 DAA, average over the five weeds
[19] = 504 h, 560 g ae/ha, 21 DAA, average over the five weeds

## N#C/C(=N\OC(=O)COc1ccc(Cl)cc1Cl)c1ccccc1 [Compound A6, N-(2-(2,4-Dichlorophenoxy)acetoxy)benzimidoyl cyanide]
[1]; 168 h
  pest or weed control at 280 g/ha: 80%
  pest or weed control at 560 g/ha: 75%
[1]; 336 h
  pest or weed control at 280 g/ha: 83%
  pest or weed control at 560 g/ha: 78%
[1]; 504 h
  pest or weed control at 280 g/ha: 73%
  pest or weed control at 560 g/ha: 81%
[2]; 168 h
  pest or weed control at 280 g/ha: 68%
  pest or weed control at 560 g/ha: 70%
[2]; 336 h
  pest or weed control at 280 g/ha: 93%
  pest or weed control at 560 g/ha: 95%
[2]; 504 h
  pest or weed control at 280 g/ha: 98%
  pest or weed control at 560 g/ha: 100%
[3]; 168 h
  pest or weed control at 280 g/ha: 78%
  pest or weed control at 560 g/ha: 90%
[3]; 336 h
  pest or weed control at 280 g/ha: 75%
  pest or weed control at 560 g/ha: 85%
[3]; 504 h
  pest or weed control at 280 g/ha: 80%
  pest or weed control at 560 g/ha: 94%
[4]; 168 h
  pest or weed control at 280 g/ha: 68%
  pest or weed control at 560 g/ha: 68%
[4]; 336 h
  pest or weed control at 280 g/ha: 83%
  pest or weed control at 560 g/ha: 78%
[4]; 504 h
  pest or weed control at 280 g/ha: 94%
  pest or weed control at 560 g/ha: 73%
[5]; 168 h
  pest or weed control at 280 g/ha: 65%
  pest or weed control at 560 g/ha: 73%
[5]; 336 h
  pest or weed control at 280 g/ha: 88%
  pest or weed control at 560 g/ha: 88%
[5]; 504 h
  pest or weed control at 280 g/ha: 98%
  pest or weed control at 560 g/ha: 98%
[6]
  TGA Data (rate of weight loss, volatility): 7.2 µg/min
[7]; 168 h
  pest or weed control at 280 g/ha: 72%
  pest or weed control at 560 g/ha: 75%
[7]; 336 h
  pest or weed control at 280 g/ha: 84%
  pest or weed control at 560 g/ha: 84%
[7]; 504 h
  pest or weed control at 280 g/ha: 88%
  pest or weed control at 560 g/ha: 89%

## CCOC(=O)C(=NOC(=O)COc1ccc(Cl)cc1Cl)C(=O)OCC [Compound A7, Diethyl 2-((2-(2,4-dichlorophenoxy)acetoxy)imino)malonate]
[1]; [8]
  pest or weed control at 280 g/ha: 73%
[1]; [9]
  pest or weed control at 560 g/ha: 78%
[1]; [10]
  pest or weed control at 280 g/ha: 83%
[1]; [11]
  pest or weed control at 560 g/ha: 88%
[1]; [12]
  pest or weed control at 280 g/ha: 90%
[1]; [13]
  pest or weed control at 560 g/ha: 88%
[2]; [8]
  pest or weed control at 280 g/ha: 63%
[2]; [9]
  pest or weed control at 560 g/ha: 70%
[2]; [10]
  pest or weed control at 280 g/ha: 83%
[2]; [11]
  pest or weed control at 560 g/ha: 95%
[2]; [12]
  pest or weed control at 280 g/ha: 92%
[2]; [13]
  pest or weed control at 560 g/ha: 98%
[3]; [8]
  pest or weed control at 280 g/ha: 75%
[3]; [9]
  pest or weed control at 560 g/ha: 88%
[3]; [10]
  pest or weed control at 280 g/ha: 83%
[3]; [11]
  pest or weed control at 560 g/ha: 89%
[3]; [12]
  pest or weed control at 280 g/ha: 92%
[3]; [13]
  pest or weed control at 560 g/ha: 94%
[4]; [8]
  pest or weed control at 280 g/ha: 68%
[4]; [9]
  pest or weed control at 560 g/ha: 70%
[4]; [10]
  pest or weed control at 280 g/ha: 75%
[4]; [11]
  pest or weed control at 560 g/ha: 73%
[4]; [12]
  pest or weed control at 280 g/ha: 73%
[4]; [13]
  pest or weed control at 560 g/ha: 78%
[5]; [8]
  pest or weed control at 280 g/ha: 68%
[5]; [9]
  pest or weed control at 560 g/ha: 73%
[5]; [10]
  pest or weed control at 280 g/ha: 89%
[5]; [11]
  pest or weed control at 560 g/ha: 83%
[5]; [12]
  pest or weed control at 280 g/ha: 93%
[5]; [13]
  pest or weed control at 560 g/ha: 90%
[6]
  TGA Data (rate of weight loss, volatility): 4.7 µg/min
[7]; [14]
  pest or weed control at 280 g/ha: 69%
[7]; [15]
  pest or weed control at 560 g/ha: 76%
[7]; [16]
  pest or weed control at 280 g/ha: 82%
[7]; [17]
  pest or weed control at 560 g/ha: 85%
[7]; [18]
  pest or weed control at 280 g/ha: 88%
[7]; [19]
  pest or weed control at 560 g/ha: 89%

## CC(=O)/C(C)=N/OC(=O)COc1ccc(Cl)cc1Cl [Compound A8, 3-((2-(2,4-Dichlorophenoxy)acetoxy)imino)butan-2-one]
[1]; [8]
  pest or weed control at 280 g/ha: 70%
[1]; [9]
  pest or weed control at 560 g/ha: 75%
[1]; [10]
  pest or weed control at 280 g/ha: 83%
[1]; [11]
  pest or weed control at 560 g/ha: 85%
[1]; [12]
  pest or weed control at 280 g/ha: 78%
[1]; [13]
  pest or weed control at 560 g/ha: 87%
[2]; [8]
  pest or weed control at 280 g/ha: 70%
[2]; [9]
  pest or weed control at 560 g/ha: 80%
[2]; [10]
  pest or weed control at 280 g/ha: 90%
[2]; [11]
  pest or weed control at 560 g/ha: 98%
[2]; [12]
  pest or weed control at 280 g/ha: 96%
[2]; [13]
  pest or weed control at 560 g/ha: 100%
[3]; [8]
  pest or weed control at 280 g/ha: 74%
[3]; [9]
  pest or weed control at 560 g/ha: 95%
[3]; [10]
  pest or weed control at 280 g/ha: 65%
[3]; [11]
  pest or weed control at 560 g/ha: 96%
[3]; [12]
  pest or weed control at 280 g/ha: 70%
[3]; [13]
  pest or weed control at 560 g/ha: 99%
[4]; [8]
  pest or weed control at 280 g/ha: 68%
[4]; [9]
  pest or weed control at 560 g/ha: 70%
[4]; [10]
  pest or weed control at 280 g/ha: 73%
[4]; [11]
  pest or weed control at 560 g/ha: 80%
[4]; [12]
  pest or weed control at 280 g/ha: 83%
[4]; [13]
  pest or weed control at 560 g/ha: 80%
[5]; [8]
  pest or weed control at 280 g/ha: 70%
[5]; [9]
  pest or weed control at 560 g/ha: 73%
[5]; [10]
  pest or weed control at 280 g/ha: 85%
[5]; [11]
  pest or weed control at 560 g/ha: 90%
[5]; [12]
  pest or weed control at 280 g/ha: 92%
[5]; [13]
  pest or weed control at 560 g/ha: 97%
[6]
  TGA Data (rate of weight loss, volatility): 1 µg/min
[7]; [14]
  pest or weed control at 280 g/ha: 70%
[7]; [15]
  pest or weed control at 560 g/ha: 79%
[7]; [16]
  pest or weed control at 280 g/ha: 79%
[7]; [17]
  pest or weed control at 560 g/ha: 90%
[7]; [18]
  pest or weed control at 280 g/ha: 84%
[7]; [19]
  pest or weed control at 560 g/ha: 93%
